From patent US20240182415A1, “ACETAL, KETAL, AND […] OF PSILOCIN, PROCESSES FOR THE PREPARATION THEREOF, AND METHODS OF USE” (Invyxis, Inc., priority 2022, published 2024)
Like-named read-outs stand apart in the source and are kept apart here.

Key:
[1] = target: human serotonin 5HT2A receptor (Homo sapiens, UniProt P28223); assay: 5HT2A receptor radioligand displacement assay; conditions: displacement of [3H]-ketanserin or [3H]-LSD, 5HT2A membrane from HEK293
[2] = Compound stability in fasted state simulated gastric fluid (FaSSGF); type: in vitro ADME; conditions: 37° C., 60 min vs T0
Protocol: Fasted state simulated gastric fluid (FaSSGF). FaSSGF was prepared according to the manufacturer instructions (Biorelevant, UK). Test compounds (2 μL of 200 μM solution) were added to a 96-well plate containing 198 μL FaSSGF per well. The mixture was incubation in a thermomixer at 37° C. for 60 min. Sample aliquots were removed (40 μL, from T0 and 60 min.) and quenched with acetonitrile containing 0.5 μM glyburide (IS), and the supernatant collected by centrifugation (2500 rpm, 15 min.). LC-MS was performed using an Agilent MSD (electrospray in positive ionization) equipped with a Kinetic C18 reverse-column. The percent of test compound remaining was calculated using the ratio of the peak area of intact test compound at 60 min. over T0. The percent of psilocin release was calculated by comparing the peak area of psilocin at 60 min, (for test compound) vs. peak area at T0 (2 μM psilocin).

[3] = Single-dose oral pharmacokinetics in mice (plasma and brain); type: in vivo, C57BL6 mice; conditions: PO 3.0 mg/kg
Protocol: The single-dose pharmacokinetics of test compounds were analyzed relative to control (psilocin) in C57BL6 mice via oral (PO) administration. Test compound was dissolved in DMSO and transferred to a 15-mL tube, followed by addition of Tween-80, PEG-400, and water to final volume. The resulting formulation (0.3 mg/mL compound, in DMSO (1%), Tween-80 (5%), and PEG-400 (25%) in water (69%)) was vortexed for 2 min. and mixed by inversion.
Male C57BL6 mice (3× per compound, (at a weight ˜20 g)) received a single dose (oral) of test compound at 3.0 mg/kg. Blood samples were collected pre-dose and at 0.083, 0.25, 0.5, 1, 2, 4, 8, 24-hour post-dose to yield approximately 20 μL of pooled plasma (3× mice) per time point. Brain tissues were collected at 2- and 8-hr post-dose. Brain was flushed with saline solution using a perfusion needle through the ascending aorta of the ventricle to remove any remaining blood prior to collection. Plasma and brain homogenate samples were stored at −80° C. prior to extraction for LC-MS/MS analysis.
Samples were analyzed by LC-MS/MS to quantify the amounts of test compound and control (psilocin). The calculation of the pharmacokinetic (PK) parameters (AUCt, AUCinf, Cmax, Tmax, T1/2, and Kel) can be performed using a non-compartmental analysis (trapezoidal method).

[4] = Compound stability, IP-One incubation; type: in vitro ADME; conditions: IP-One stimulation medium on CHO-K1 cells expressing 5-HT2A, 2 μM, 60 min vs T0, 37° C.
Protocol: IP-One incubation. CHO-K1 cells expressing recombinant Serotonin receptor 5-HT2A (Perkin Elmer, Waltham, MA), were seeded in 96-well plates (˜80,000 cells/well) and treated with 28 μL (per well) of stimulation medium (IP-One HTRF® kit) containing test compounds (2 μM) for 1 hr in a CO2 incubator (5%) at 37° C. The cell-treated medium from 3 wells were pooled together to provide 40 μL for LC-MS analysis. Aliquots for each compound were collected at time zero (To, 100% intact test compound) and 60-min. The incubated medium (40 μL) was quenched with 120 μL of acetonitrile containing 0.5 μM glyburide (IS), and the supernatant was collected by centrifugation (2500 rpm, 15 min.). LC-MS was performed using an Agilent MSD (electrospray in positive ionization) equipped with a Kinetic C18 reverse-column. The percent of test compound remaining is calculated using the ratio of the peak areas of intact test compound at 60 min. over T0. The percent of psilocin release is calculated by comparing the peak area of psilocin at 60 min. (for test compound) vs. peak area at T0 (2 μM psilocin). Results are summarized in Table 1, (rel to % parent detected; and/or % psilocin detected).

Sequence of human serotonin 5HT2A receptor (P28223 whole entry): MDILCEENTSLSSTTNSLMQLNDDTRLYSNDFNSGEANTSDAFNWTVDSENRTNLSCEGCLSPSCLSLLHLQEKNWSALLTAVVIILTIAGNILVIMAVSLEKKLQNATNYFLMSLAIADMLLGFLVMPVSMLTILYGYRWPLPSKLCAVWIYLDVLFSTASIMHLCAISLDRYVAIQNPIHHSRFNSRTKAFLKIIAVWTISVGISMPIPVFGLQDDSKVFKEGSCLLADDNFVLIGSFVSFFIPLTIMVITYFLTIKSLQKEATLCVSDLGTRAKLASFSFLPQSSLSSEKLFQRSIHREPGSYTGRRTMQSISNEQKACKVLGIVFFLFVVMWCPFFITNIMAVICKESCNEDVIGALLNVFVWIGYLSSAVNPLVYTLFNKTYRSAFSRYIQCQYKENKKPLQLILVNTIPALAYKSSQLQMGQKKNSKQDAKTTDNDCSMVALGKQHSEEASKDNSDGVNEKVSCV

With `CN(C)CCc1c[nH]c2cccc(O)c12` [Psilocin, 4-hydroxy-N,N-dimethyltryptamine] the “Displacement activity relative to psilocin” value [1] was “++”, the “% parent compound” value [2] was 72.2% and the “mean brain/plasma (B/P) ratio” value ([3]; 2-h post-dose, with estimated plasma concentration of 5 ng/mL) was 11.2±4.3. For the same compound, the “psilocin in the brain at 8-h post-dose” value ([3]; 8-h post-dose) was “No psilocin in the brain was detected”, the “Parent PK [brain] 2 h” value ([3]; brain, 2 h post-dose, parent compound) was 54 ng/mL and the Cmax ([3]; male, C57BL6, mouse, plasma, estimated, based on other pharmacokinetic data, read-out: Parent PK Cmax (estimated psilocin plasma concentration)) was 5 ng/mL. For the same compound, the “% parent compound” value [4] was 87.4%.

`COC(C)Oc1cccc2[nH]cc(CCN(C)C)c12` (centres unmarked) [Test compound A, 2-(4-(1-methoxyethoxy)-1H-indol-3-yl)-N,N-dimethylethan-1-amine] showed a concentration at 2 h ([3]; male, C57BL6, mouse, brain, 2 h post-dose, parent compound, read-out: Parent PK [brain] 2 h) of 0.6 ng/mL, an AUC ([3]; male, C57BL6, mouse, plasma, parent compound, read-out: Parent PK AUC) of 51.4 ng·h/mL and a Cmax ([3]; male, C57BL6, mouse, plasma, parent compound, read-out: Parent PK Cmax) of 21.6 ng/mL.

With `CCOCOc1cccc2[nH]cc(CCN(C)C)c12` [drawing 86] the “% parent compound” value [4] was 91.9%.

In the case of `COC(C)Oc1cccc2[nH]cc(CCN(C)C)c12` (centres unmarked) [drawing 87], the “% parent compound” value [4] is reported as 88.8%.

In the case of `COC(C)n1cc(CCN(C)C)c2c(O)cccc21` (centres unmarked) [drawing 88], the “% parent compound” value [4] is reported as 82.5%.

In the case of `COCCOCn1cc(CCN(C)C)c2c(OCOC)cccc21` [drawing 89], the “% parent compound” value [4] is reported as 94.7%.

In the case of `CCOCOc1cccc2[nH]cc(CCN(C)C)c12` [drawing 91], the “% parent compound” value [2] is reported as 97%.

In the case of `COCCOCn1cc(CCN(C)C)c2c(OCOC)cccc21` [drawing 94], the “% parent compound” value [2] is reported as 20%.

For `CCOCOc1cccc2[nH]cc(CCN(C)C)c12` [drawing 96], the “Displacement activity relative to psilocin” value [1] was “+++”.

For `COC(C)Oc1cccc2[nH]cc(CCN(C)C)c12` (centres unmarked) [drawing 97], the “Displacement activity relative to psilocin” value [1] was “++”.

With `COC(C)n1cc(CCN(C)C)c2c(O)cccc21` (centres unmarked) [drawing 98] the “Displacement activity relative to psilocin” value [1] was “+”.

For `COCCOCn1cc(CCN(C)C)c2c(OCOC)cccc21` [drawing 99], the “Displacement activity relative to psilocin” value [1] was “+”.
